Reference: patent US5362906A, “Farnesyl pyrophosphate analogs” (Merck & Co., Inc., priority 1993, dated 1994)

Tested on: Ras farnesylation
Test: not given
Settings: Hancock et al., Casey et al., Schafer et al.; cited from earlier work
In the case of `CC[C@H](C)C(=O)O[C@H]1C[C@@H](C)C=C2C=C[C@H](C)[C@H](CC[C@@H]3C[C@@H](O)CC(=O)O3)[C@H]21` [lovastatin], the “Inhibition of Ras farnesylation in vivo” value is given as “Inhibition of Ras farnesylation in vivo has been demonstrated”. In the case of `CC[C@H](C)C(=O)O[C@H]1CCC=C2C=C[C@H](C)[C@H](CC[C@@H]3C[C@@H](O)CC(=O)O3)[C@H]21` [compactin], the “Inhibition of Ras farnesylation in vivo” value is listed as “Inhibition of Ras farnesylation in vivo has been demonstrated”.

Tested on: HMG-CoA reductase
Test: not given
Settings: cited from earlier work
For `CC[C@H](C)C(=O)O[C@H]1C[C@@H](C)C=C2C=C[C@H](C)[C@H](CC[C@@H]3C[C@@H](O)CC(=O)O3)[C@H]21` [lovastatin], the “Inhibition of HMG-CoA reductase” value is listed as “inhibit HMG-CoA reductase”. For `CC[C@H](C)C(=O)O[C@H]1CCC=C2C=C[C@H](C)[C@H](CC[C@@H]3C[C@@H](O)CC(=O)O3)[C@H]21` [compactin], the “Inhibition of HMG-CoA reductase” value is given as “inhibit HMG-CoA reductase”.

Molecular target: T1, Farnesyl-protein transferase (Bos taurus, UniProt P29702+P49355)
T1 construct: Farnesyl-protein transferase from bovine brain; from tissue; host or cells: bovine brain, partially purified (DEAE-Sephacel, N-octyl agarose, mono Q HPLC)
Test: Inhibition of Ras farnesylation in vitro by farnesyl-protein transferase (FTase)
Assay type: biochemical
Settings: partially purified bovine brain FTase; Ras-CVLS 3.5 μM, [3H]FPP 0.25 μM; averages of 2-5 determinations
Procedure: The farnesyl pyrophosphate analog compounds of this invention were tested as follows for their ability to inhibit Ras farnesylation in vitro. Farnesyl-protein transferase from bovine brain was chromatographed on DEAE-Sephacel (Pharmacia, 0-0.8M NaCl gradient elution), N-octyl agarose (Sigma, 0-0.6M NaCl gradient elution), and a mono Q HPLC column (Pharmacia, 0-0.3M NaCl gradient). Ras-CVLS at 3.5 μM, 0.25 μM [^3 H]FPP, and the indicated compounds were incubated with this partially purified enzyme preparation.
The FTase data presented above are the averages of 2-5 determinations and reflect the ability of the test compounds to inhibit Ras farnesylation in vitro.
`CC(C)=CCC/C(C)=C/CC/C(C)=C/CCC(O)CP(=O)(O)O` (stereo not drawn) [Scheme 3, [2-Hydroxy-6,10,14-trimethylpentadeca-5,9,13-trienyl]phosphonic acid] showed an IC50 of 100 µM. With “[1-Hydroxy-(E,E)-4,8,12-trimethyl-3,7,11-tridecatrienyl]phosphonic acid [Scheme 12]” the IC50 was 42 µM. “[2-[(E,E)-3,7,11-Trimethyl-2,6,10-dodecatrienylamino]-2-oxo-ethyl]phosphonic acid monomethyl ester, potassium salt [Scheme 8]” gave an IC50 of 100 µM. In the case of `CC(C)=CCC/C(C)=C/CC/C(C)=C/CCC(O)CC(=O)O` (stereo not drawn) [Scheme 1, 3-Hydroxy-7,11,15-trimethylhexadeca-6,10,14-trienoic acid], the IC50 is reported as 310 µM. With `CC(C)=CCC/C(C)=C/CC/C(C)=C/CNC(=O)CP(=O)(O)O` [Scheme 5, [2-[(E,E)-3,7,11-Trimethyl-2,6,10-dodecatrienylamino]-2-oxo-ethyl]phosphonic acid] the IC50 was 0.044 µM. In the case of `CC(=O)C(C/C=C(\C)CC/C=C(\C)CCC=C(C)C)P(=O)(O)O` (stereo not drawn) [Scheme 4, [1-Acetyl-4,8,12-trimethyltrideca-3,7,11-trienyl]phosphonic acid], the IC50 is reported as 21 µM. `CC(C)=CCC/C(C)=C/CC/C(C)=C/CCC(=O)CP(=O)(O)O` [Scheme 2, [2-Oxo-6,10,14-trimethylpentadeca-5,9,13-trienyl]phosphonic acid] showed an IC50 of 62 µM. Compound `CC(C)=CCC/C(C)=C/CC/C(C)=C/CCSCP(=O)(O)O` [Scheme 6, [(E,E)-4,8,12-trimethyl-3,7,11-tridecatrienyl]thiomethyl-phosphonic acid] has an IC50 of 100 µM.
